This passage reports IC50 and Kd results from patent US20080306067A1, “Modulators of Chemokine Receptor Activity” (priority 2005, published 2008).

What is called IC50 is the concentration needed to halve the response being measured. Broadly, the Kd is the constant that tells how readily two partners part at equilibrium. A lower Kd goes with higher affinity.

The target of one test is T1, human CCR-3 (Homo sapiens, UniProt P51677).
T1 construct: expressed in transfected cells; membrane preparation
T1 sequence (P51677 1-355): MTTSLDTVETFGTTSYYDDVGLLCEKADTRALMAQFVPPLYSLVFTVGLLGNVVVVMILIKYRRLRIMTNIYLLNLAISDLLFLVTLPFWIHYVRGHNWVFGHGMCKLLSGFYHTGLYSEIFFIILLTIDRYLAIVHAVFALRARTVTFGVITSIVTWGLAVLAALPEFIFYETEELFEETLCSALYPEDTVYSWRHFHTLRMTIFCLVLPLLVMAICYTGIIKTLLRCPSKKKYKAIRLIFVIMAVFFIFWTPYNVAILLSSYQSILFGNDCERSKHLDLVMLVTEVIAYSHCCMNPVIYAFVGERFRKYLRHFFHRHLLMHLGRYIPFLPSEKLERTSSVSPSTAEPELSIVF
Put plainly: binding of [125I]-human eotaxin to human CCR-3 (SPA, membranes of RBL-2H3 cells expressing CCR3). The settings on record: 4 hours at room temperature, read-out: IC50 (inhibition of binding of eotaxin to CCR-3). The protocol: In this assay the effect of the compounds of the present invention on the binding of human eotaxin to human CCR-3 is determined. Recombinant cells expressing human CCR-3 are captured by wheatgerm agglutinin (WGA) polyvinyltoluidene (PVT) SPA beads (available from Amersham), through a specific interaction between the WGA and carbohydrate residues of glycoproteins on the surface of the cells. [^125I]-human eotaxin (available from Amersham) binds specifically to CCR-3 receptors bringing the [^125I]-human eotaxin in close proximity to the SPA beads. Emitted â-particles from the [^125I]-human eotaxin excite, by its proximity, the fluorophore in the beads and produce light.
Preparation of Assay Buffer. 5.96 g HEPES and 7.0 g sodium chloride are dissolved in distilled H2O and 1M aq. CaCl2 (1 ml) and 1M aq. MgCl2 (5 ml) are added. The pH is adjusted to 7.6 with NaOH and the solution made to a final volume of 1 L using distilled H2O. 5 g of bovine serum albumin and 0.1 g NaN3 are dissolved in the solution and the resulting buffer stored at 4° C. […]
The assay is performed in a final volume of 250 μl per well of an Optiplate™ microplate (ex Canberra Packard). […] The resulting scintillations are counted using a Canberra Packard TopCount™ scintillation counter, each well being counted for 1 minute. […]

Test [1] has as its target alpha-1 adrenergic receptor. The experiment in a line: alpha-1 adrenergic receptor radioligand binding assay ([125I]-HEAT, rat cerebral cortex membranes). Particulars: radioligand used at 40 pM. The protocol: The inhibitory properties of the compounds of the present invention on binding of the alpha-1 adrenergic receptor can be determined in the following assay:
Cerebral cortices from male Sprague-Dawley rats (175-200 g) are dissected and homogenised in 10 volumes of ice cold 0.32 M sucrose (containing 1 mM MgCl2 dihydrate and 1 mM K2HPO4) with a glass/Teflon homogeniser. The membranes are centrifuged at 1000×g for 15 minutes, the pellet discarded and the centrifugation repeated. The supernatants are pooled and centrifuged at 18,000×g for 15 minutes. The pellet is osmotically shocked in 10 volumes of H2O and kept on ice for 30 minutes. The suspension is centrifuged at 39,000×g for 20 minutes, resuspended in Krebs-Henseleit buffer pH 7.4 (1.17 mM MgSO4 anhydrous, 4.69 mM KCl, 0.7 mM K2HPO4 anhydrous, 0.11 M NaCl, 11 mM D-glucose and 25 mM NaHCO3) containing 20 mM Tris, and kept for 2 days at −20° C. […]
The resulting membranes are subjected to a radioligand binding assay. […] Following drying of the plates for 3 h. at 50° C., 40 μl of Microscint 20 is added to each well, the plates incubated at room temperature for a further 20 minutes and the retained radioactivity quantified in a Packard TopCount NXT™ scintillation counter. […]

On to `CN(CCCCNC(=O)Nc1cccc(-c2nnnn2C)c1)Cc1ccc(F)cc1` [Example 1, 1-{4-[(4-Fluorobenzyl)-methylamino]butyl}-3-[3-(1-methyl-1H-tetrazol-5-yl)phenyl]-urea], for which the IC50 at human CCR-3 was ~6 nM.
Consider `O=C1c2ccccc2CCC1CNCCc1ccc(O)c(I)c1` (centres unmarked) [[^125I]-HEAT], for which the affinity in test [1], expressed as Kd, was 0.0589 ± 0.0187 nM.
